# Results published in ChEMBL document CHEMBL1156956, “Triazines incorporating (R)-3-methylmorpholine are potent inhibitors of the mammalian target of rapamycin (mTOR) with selectivity over PI3Kalpha” (Bioorg Med Chem Lett, 2010).
# Columns and labels:
# [1] = Growth inhibition of human MDA468 cells after 3 days by MTS assay; assay type: functional, cell-based; conditions: MDA-MB-468, 72 h
# [2] = molecular target: Serine/threonine-protein kinase mTOR (Rattus norvegicus, UniProt P42346); test: Inhibition of rat brain mTOR assessed as p70S6k-GST protein phosphorylation after 30 mins by ELISA
# LNCaP = test: Growth inhibition of human LNCAP cells after 3 days by MTS assay; assay type: functional, cell-based; conditions: 72 h
# [3] = molecular target: Phosphatidylinositol 4,5-bisphosphate 3-kinase catalytic subunit alpha isoform (Homo sapiens, UniProt P42336); test: Inhibition of PI3Kalpha assessed as PIP3 accumulation after 24 mins by HTRF assay
# Sequence of Phosphatidylinositol 4,5-bisphosphate 3-kinase catalytic subunit alpha isoform (P42336 whole entry, canonical isoform): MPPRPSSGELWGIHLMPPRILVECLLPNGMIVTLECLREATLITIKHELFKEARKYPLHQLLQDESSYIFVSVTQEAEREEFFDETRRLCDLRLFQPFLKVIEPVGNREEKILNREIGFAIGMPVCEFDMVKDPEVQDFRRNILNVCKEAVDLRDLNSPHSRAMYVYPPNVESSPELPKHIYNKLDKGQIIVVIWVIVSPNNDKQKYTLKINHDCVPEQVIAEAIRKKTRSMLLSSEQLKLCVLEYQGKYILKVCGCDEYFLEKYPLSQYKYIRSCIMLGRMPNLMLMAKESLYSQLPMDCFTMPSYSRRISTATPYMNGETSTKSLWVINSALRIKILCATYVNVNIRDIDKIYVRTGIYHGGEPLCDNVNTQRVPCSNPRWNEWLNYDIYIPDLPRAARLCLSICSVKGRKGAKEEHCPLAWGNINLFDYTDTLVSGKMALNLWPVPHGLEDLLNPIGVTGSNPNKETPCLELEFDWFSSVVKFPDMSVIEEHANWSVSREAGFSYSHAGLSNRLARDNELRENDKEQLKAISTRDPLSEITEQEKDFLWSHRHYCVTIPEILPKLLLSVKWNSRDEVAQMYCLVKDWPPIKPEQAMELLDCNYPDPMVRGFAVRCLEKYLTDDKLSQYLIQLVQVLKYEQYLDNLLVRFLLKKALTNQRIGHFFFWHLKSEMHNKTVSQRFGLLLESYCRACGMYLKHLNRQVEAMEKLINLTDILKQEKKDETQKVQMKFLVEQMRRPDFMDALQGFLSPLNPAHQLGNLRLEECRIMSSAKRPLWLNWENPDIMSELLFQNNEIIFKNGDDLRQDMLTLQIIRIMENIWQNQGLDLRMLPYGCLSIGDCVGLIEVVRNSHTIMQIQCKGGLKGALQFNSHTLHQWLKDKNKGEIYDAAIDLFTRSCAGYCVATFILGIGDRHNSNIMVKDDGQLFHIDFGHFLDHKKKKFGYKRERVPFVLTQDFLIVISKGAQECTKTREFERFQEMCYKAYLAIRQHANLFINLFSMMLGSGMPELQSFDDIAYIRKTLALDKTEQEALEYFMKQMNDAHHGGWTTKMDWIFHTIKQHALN
compound,measurement,setting,value
C[C@@H]1COCCN1c1nc(-c2ccc(NC(=O)Nc3cccnc3)cc2)nc(N2C[C@@H]3C[C@H]2CO3)n1,IC50,[1],300 nM
same,IC50,[2],3.6 nM
same,IC50,LNCaP,250 nM
C[C@@H]1COCCN1c1nc(-c2ccc(NC(=O)Nc3cccnc3)cc2)nc(N2CCOC[C@H]2C)n1,IC50,[1],100 nM
same,IC50,[2],0.2 nM
same,IC50,LNCaP,12 nM
C[C@@H]1COCCN1c1nc(-c2ccc(NC(=O)Nc3ccc(N4CCN(C)CC4)nc3)cc2)nc(N2CCOC[C@H]2C)n1,IC50,[1],40 nM
same,IC50,[2],1.7 nM
same,IC50,LNCaP,12 nM
C[C@@H]1COCCN1c1nc(-c2ccc(NC(=O)Nc3ccc(N4CCN(C)CC4)cc3)cc2)nc(N2CCOC[C@H]2C)n1,IC50,[1],10 nM
same,IC50,[2],1.1 nM
same,IC50,LNCaP,3 nM
C[C@@H]1COCCN1c1nc(-c2ccc(NC(=O)Nc3ccc(N4CCC(N(C)C)CC4)cc3)cc2)nc(N2CCOC[C@H]2C)n1,IC50,[1],80 nM
same,IC50,[2],1.9 nM
C[C@@H]1COCCN1c1nc(-c2ccc(NC(=O)Nc3ccc(OCCN(C)C)cc3)cc2)nc(N2CCOC[C@H]2C)n1,IC50,[3],314 nM
same,IC50,[1],45 nM
same,IC50,[2],0.7 nM
same,IC50,LNCaP,8 nM
C[C@@H]1COCCN1c1nc(-c2ccc(NC(=O)Nc3ccc(C(=O)N4CCN(C)CC4)cc3)cc2)nc(N2CCOC[C@H]2C)n1,IC50,[1],< 0.8 nM
same,IC50,[2],1.7 nM
same,IC50,LNCaP,< 0.8 nM
C[C@@H]1COCCN1c1nc(-c2ccc(NC(=O)Nc3ccc(C(=O)N4CCC(N(C)C)CC4)cc3)cc2)nc(N2CCOC[C@H]2C)n1,IC50,[3],55 nM
same,IC50,[1],5 nM
same,IC50,[2],0.5 nM
C[C@@H]1COCCN1c1nc(-c2ccc(NC(=O)Nc3ccc(C(=O)N(C)C)cc3)cc2)nc(N2CCOC[C@H]2C)n1,IC50,[1],< 0.8 nM
same,IC50,[2],0.5 nM
same,IC50,LNCaP,< 0.8 nM
C[C@@H]1COCCN1c1nc(-c2ccc(NC(=O)Nc3ccc(N4CCN(C)CC4)nc3)cc2)nc(C2CCOCC2)n1,IC50,[1],52 nM
C[C@@H]1COCCN1c1nc(-c2ccc(NC(=O)Nc3ccc(N4CCN(C)CC4)cc3)cc2)nc(C2CCOCC2)n1,IC50,[1],6 nM
same,IC50,[2],0.7 nM
same,IC50,LNCaP,1 nM
C[C@@H]1COCCN1c1nc(-c2ccc(NC(=O)Nc3ccc(N4CCNCC4)cc3)cc2)nc(C2CCOCC2)n1,IC50,[1],9 nM
same,IC50,[2],0.8 nM
same,IC50,LNCaP,2 nM
C[C@@H]1COCCN1c1nc(-c2ccc(NC(=O)Nc3ccc(N4CCC(N(C)C)CC4)cc3)cc2)nc(C2CCOCC2)n1,IC50,[1],38 nM
same,IC50,[2],1.7 nM
same,IC50,LNCaP,16 nM
C[C@@H]1COCCN1c1nc(-c2ccc(NC(=O)Nc3ccc(C(=O)N4CCN(C)CC4)cc3)cc2)nc(C2CCOCC2)n1,IC50,[1],< 0.8 nM
same,IC50,[2],1 nM
same,IC50,LNCaP,< 0.8 nM
CC(C)N1CCN(C(=O)c2ccc(NC(=O)Nc3ccc(-c4nc(C5CCOCC5)nc(N5CCOC[C@H]5C)n4)cc3)cc2)CC1,IC50,[1],< 0.8 nM
same,IC50,[2],0.7 nM
same,IC50,LNCaP,< 0.8 nM
C[C@@H]1COCCN1c1nc(-c2ccc(NC(=O)Nc3cccnc3)cc2)nc(C2CCOCC2)n1,IC50,[1],80 nM
same,IC50,[2],0.6 nM
C[C@@H]1COCCN1c1nc(-c2ccc(NC(=O)Nc3ccncc3)cc2)nc(N2CCOC[C@H]2C)n1,IC50,[1],40 nM
same,IC50,[2],0.2 nM
C[C@@H]1COCCN1c1nc(-c2ccc(NC(=O)Nc3ccc(CN(C)C)cc3)cc2)nc(N2CCOC[C@H]2C)n1,IC50,[1],50 nM
same,IC50,[2],2 nM
same,IC50,LNCaP,21 nM
